We go through 3 compounds from article PMC8453635, “Piperidine Azasugars Bearing Lipophilic Chains: Stereoselective Synthesis and Biological Activity as Inhibitors of Glucocerebrosidase (GCase)” (The Journal of Organic Chemistry, 2021).

Structures are written as SMILES. Residue numbers refer to the chain shown, from its start. “Also recorded” adds a separate entry of the source.

One data set concerns the target T1, GCase (Homo sapiens, UniProt P04062).
T1 construct: screened toward GCase in leukocytes isolated from healthy donors (controls); from tissue; host or cells: leukocytes isolated from healthy donors, disrupted by sonication
T1 sequence (P04062 40-536): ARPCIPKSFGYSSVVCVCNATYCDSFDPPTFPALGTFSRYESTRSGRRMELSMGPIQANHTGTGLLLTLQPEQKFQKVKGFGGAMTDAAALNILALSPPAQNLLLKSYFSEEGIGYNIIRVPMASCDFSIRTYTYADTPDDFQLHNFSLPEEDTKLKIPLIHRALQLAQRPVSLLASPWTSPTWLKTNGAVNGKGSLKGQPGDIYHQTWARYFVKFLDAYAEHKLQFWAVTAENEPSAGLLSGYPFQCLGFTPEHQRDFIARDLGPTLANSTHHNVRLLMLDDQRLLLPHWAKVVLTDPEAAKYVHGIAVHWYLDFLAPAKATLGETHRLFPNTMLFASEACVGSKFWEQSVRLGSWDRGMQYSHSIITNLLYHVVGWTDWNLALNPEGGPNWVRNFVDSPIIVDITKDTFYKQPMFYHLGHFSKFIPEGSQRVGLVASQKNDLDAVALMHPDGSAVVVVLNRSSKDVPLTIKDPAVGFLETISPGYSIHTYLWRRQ
As to the kind of experiment: GCase inhibition in human leukocyte homogenates. In kind it is biochemical. Conditions: for GCase inhibition [%]: human leukocytes extracts incubated with azasugars (1 mM); for IC50: human leukocytes from healthy donors, substrate 4-methylumbelliferyl-β-D-glucoside 3.33 mM. As to the method: Compounds 14, 15, and 33·HCl were then tested at 1 mM for GCase inhibition in human leukocyte homogenates. The results obtained were compared with data of previously reported compounds 9, 11, and 12.[12],[16],[17]
The compounds 14, 15, and 33·HCl were screened toward GCase in leukocytes isolated from healthy donors (controls). Isolated leukocytes were disrupted by sonication, and a micro BCA protein assay kit (Sigma-Aldrich) was used to determine the total protein amount for the enzymatic assay, according to the manufacturer instructions. Enzyme activity was measured in a flat-bottomed 96-well plate. Compound solution (3 μL), 4.29 μg/μL leukocytes homogenate (7 μL), and substrate 4-methylumbelliferyl-β-D-glucoside (3.33 mM, 20 μL, Sigma-Aldrich) in citrate/phosphate buffer (0.1:0.2, M/M, pH 5.8) containing sodium taurocholate (0.3%) and Triton X-100 (0.15%) at 37 °C were incubated for 1 h. The reaction was stopped by addition of sodium carbonate (200 μL; 0.5 M, pH 10.7) containing Triton X-100 (0.0025%), and the fluorescence of 4-methylumbelliferone released by β-glucosidase activity was measured in SpectraMax M2 microplate reader (λex = 365 nm, λem = 435 nm; Molecular Devices). Percentage GCase inhibition is given with respect to the control (without compound). Data are mean SD (n = 3).
The IC50 values of inhibitors against GCase were determined by measuring the initial hydrolysis rate with 4-methylumbelliferyl-β-D-glucoside (3.33 mM). Data obtained were fitted by using the appropriate Equation (for more details, see the Supporting Information section).
Percentage of GCase inhibition of compounds 14, 15 and 33.HCl towards human GCase Percentage of GCase inhibition of the whole collection of compounds in human leukocytes extracts incubated with iminosugars at 1 mM concentration.
IC50 determination: The IC50 values of inhibitors against GCase were determined by measuring the initial hydrolysis rate with 4-methylumbelliferyl-β-D-glucoside (3.33 mM). Data obtained were fitted to the following equation using the Origin Microcal program. where Vi/Vo, represent the ratio between the activity measured in the presence of the inhibitor (Vi) and the activity of the control without the inhibitor (V0), “x” the inhibitor concentration, Max and Min, the maximal and minimal enzymatic activity observed, respectively.
(also on this page, place not known: Min IC x MinMax Vo Vi slope + […] […] […] […] […] […]+ −= 50 1 (V i) activity nmoli/mg/h)
(1 picture or pasted object on this page, not shown here)

Data set [1] addresses T2, GCase in fibroblasts bearing the N370S/RecNcil mutation (Homo sapiens, UniProt P04062, A495P/L483P/N409S).
T2 construct: fibroblasts derived from Gaucher patients bearing the N370S/RecNcil and L444P/L444P mutations; host or cells: fibroblasts from Gaucher disease patients, N370S/RecNcil
T2 sequence (P04062 40-536 N409S): T1 sequence (P04062 40-536) with N370S
The experiment in a line: Pharmacological chaperoning activity in N370S/RecNcil Gaucher fibroblasts. In kind it is cell-based. As to conditions: for cell viability: 50 µM and 100 µM, 4 days; for GCase enzymatic activity rescue: 4 days incubation. As to the method: The ability of compounds 14 and 15 to enhance the activity of GCase after incubation (4 days) with fibroblasts bearing the selected mutations was evaluated. The experiments were performed using fibroblasts derived from Gaucher patients bearing the N370S/RecNcil and L444P/L444P mutations (see the Supporting Information section).
Fibroblasts with the N370S/RecNcil (or L444P/L444P) mutation from Gaucher disease patients were obtained from the “Cell line and DNA Biobank from patients affected by Genetic Diseases” (Gaslini Hospital, Genova, Italy). Fibroblast cells (15.0 × 10^4) were seeded in T25 flasks with DMEM supplemented with fetal bovine serum (10%), penicillin/streptomycin (1%), and glutamine (1%) and incubated at 37 °C with 5% CO2 for 24 h. The medium was removed, and fresh medium containing the compounds (14, 15 and 33·HCl) was added to the cells and incubated for 4 days. The medium was removed, and the cells were washed with PBS and detached with trypsin to obtain cell pellets, which were washed four times with PBS, frozen, and lysed by sonication in water. Enzyme activity was measured as reported above. Reported data are mean S.D. (n = 2).
Pharmacological chaperoning activity
Figure S50. Fibroblasts derived from GD patients bearing N370S/RecNcil mutations were incubated without (control, ctrl) or with 7 different concentrations (10 nM, 50 nM, 100 nM, 1 μM, 10 μM, 50 μM, 100 μM) of compounds 14 and 15. After 4 days, the flasks containing cells incubated with 50 µM and 100 µM […]
other concentrations, the GCase activity was determined in lysates from treated fibroblasts. Reported data are mean S.D. (n=2).
(also on this page, place not known: beta glucosidase activity (nmol/mg/h) beta glucosidase activity (nmol/mg/h)) […]
Figure S51. Fibroblasts derived from GD patients bearing N370S/RecNcil mutations were incubated without (control, ctrl) or with […] different concentrations (5 nM, 10 nM, 100 nM, 1 μM, 10 μM, 30 μM) of compound 33.HCl. After 4 days, the GCase activity was determined in lysates from treated fibroblasts. Reported […]
(also on this page, place not known: beta glucosidase activity (nmol/mg/h))

One may read the IC50 as the concentration needed to halve the response being measured. Take `CCCCCCCC[C@H]1[C@@H](O)[C@H](O)[C@H](O)CN1CCCCCCCC` [compound 14, (2S,3R,4R,5R)-1,2-Dioctylpiperidine-3,4,5-triol]: at GCase, the “GCase inhibition [%]” value is 100% and the IC50 was 100 ± 9 µM. Also, the cell viability result in data set [1] was “low cell viability”. Also, the “GCase enzymatic activity rescue” value in data set [1] (5 nM to 10 μM) was “no enzymatic activity rescue; also recorded: no GCase activity enhancements”.
`CCCCCCCC[C@@H]1[C@@H](O)[C@H](O)[C@H](O)CN1CCCCCCCC` [compound 15, (2R,3R,4R,5R)-1,2-Dioctylpiperidine-3,4,5-triol]: at GCase (comparison of IC50 values), the “GCase inhibitory activity relative to monoalkylated counterpart 12” value is listed as “twofold more active”. Besides, on GCase, the “GCase inhibition [%]” value turned out to be 100% and the IC50 is 15 ± 4 µM. For the same compound, the cell viability entry in data set [1] is reported as “low cell viability”. Moreover, in data set [1] (5 nM to 10 μM), the “GCase enzymatic activity rescue” value is “no enzymatic activity rescue; also recorded: no GCase activity enhancements”.
For `CCCCCCCC[C@@H]1[C@@H](O)[C@H](O)[C@H](O)CN1C(CCCCCCC)CCCCCCC.Cl` [compound 33·HCl, (2R,3R,4R,5R)-2-Octyl-1-(pentadecan-8-yl)-piperidine-3,4,5-triol Hydrochloride], on GCase, the “GCase inhibition [%]” value came to 75% and the IC50 came out at 130 ± 15 µM. Moreover, the “GCase enzymatic activity rescue” value in data set [1] (5 nM to 30 μM) is reported as “no enzymatic activity rescue; also recorded: no GCase activity enhancements”.
